Laboratory results taken from ChEMBL document CHEMBL1201862, “PubChem BioAssay data set” (2004).
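Tested at 5 concentrations; 48 h exposure; 96-well plates; endpoints linearly interpolated, else capped at highest concentration. Here, GI50 denotes the concentration required for 50% inhibition of growth.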 Activity calls are given as the source filed them. No stated cut-off is given here; in the data, active = GI50 up to about 1.1 µM and inactive = higher.

Experiments:
Assay in all cases: NCI tumour cell line growth inhibition, 48 h
786-0 = test system: 786-0
A498 = test system: A498
CCRF-CEM = test system: CCRF-CEM
COLO 205 = test system: COLO 205
DU-145 = test system: DU-145
EKVX = test system: EKVX
HCT-15 = test system: HCT-15
HOP-62 = test system: HOP-62
IGROV-1 = test system: IGROV-1
MOLT-4 = test system: MOLT-4
OVCAR-4 = test system: OVCAR-4
OVCAR-5 = test system: OVCAR-5
PC-3 = test system: PC-3
SF-295 = test system: SF-295
SK-MEL-2 = test system: SK-MEL-2
SNB-19 = test system: SNB-19
SNB-75 = test system: SNB-75
SW-620 = test system: SW-620
U-251 = test system: U-251
UACC-62 = test system: UACC-62

Structure (SMILES)	GI50 (786-0)	GI50 (A498)	GI50 (CCRF-CEM)	GI50 (COLO 205)	GI50 (DU-145)	GI50 (EKVX)	GI50 (HCT-15) [µM]	GI50 (HOP-62)	GI50 (IGROV-1)	GI50 (MOLT-4)	GI50 (OVCAR-4)	GI50 (OVCAR-5)	GI50 (PC-3)	GI50 (SF-295)	GI50 (SK-MEL-2)	GI50 (SNB-19)	GI50 (SNB-75)	GI50 (SW-620)	GI50 (U-251)	GI50 (UACC-62)
CC1(CCC(=O)OC2CCCCC2)OCCO1	> 100 µM (inactive)	> 100 µM (inactive)	> 100 µM (inactive)	> 100 µM (inactive)	> 100 µM (inactive)	> 100 µM (inactive)	> 100	> 100 µM (inactive)	> 100 µM (inactive)	> 100 µM (inactive)	> 100 µM (inactive)	> 100 µM (inactive)	> 100 µM (inactive)	> 100 µM (inactive)	> 100 µM (inactive)	> 100 µM (inactive)	> 100 µM (inactive)	> 100 µM (inactive)	> 100 µM (inactive)	> 100 µM (inactive)
CC(C)COC(=O)OC(=O)c1ccc(N(C)Cc2cnc3nc(N)nc(N)c3n2)cc1	5.37 µM (inactive)	> 40.4 µM (inactive)	3.69 µM (inactive)	> 75.3 µM (inactive)	53.7 µM (inactive)	> 52.7 µM (inactive)	1.75	59.7 µM (inactive)	8.3 µM (inactive)	4.31 µM (inactive)	> 100 µM (inactive)	> 100 µM (inactive)	2.47 µM (inactive)	15.7 µM (inactive)	> 100 µM (inactive)	16.1 µM (inactive)	> 38.2 µM (inactive)	3.86 µM (inactive)	> 29.7 µM (inactive)	6.53 µM (inactive)
CN1C(=O)C(C(N)=O)C2CC1(C)Oc1ccccc12 (configuration not stated)	> 100 µM (inactive)	> 100 µM (inactive)	> 100 µM (inactive)	> 100 µM (inactive)	> 100 µM (inactive)	> 100 µM (inactive)	> 100	> 100 µM (inactive)	> 100 µM (inactive)	> 100 µM (inactive)	> 100 µM (inactive)	> 100 µM (inactive)	> 100 µM (inactive)	–	> 100 µM (inactive)	> 100 µM (inactive)	> 100 µM (inactive)	> 100 µM (inactive)	> 100 µM (inactive)	> 100 µM (inactive)
O=C(OCc1ccccc1)N1c2cc([N+](=O)[O-])ccc2C(=O)N2CCC[C@H]2C1O (some centres not stated)	> 100 µM (inactive)	> 100 µM (inactive)	> 100 µM (inactive)	> 100 µM (inactive)	> 100 µM (inactive)	> 100 µM (inactive)	> 100	> 100 µM (inactive)	> 100 µM (inactive)	> 100 µM (inactive)	> 100 µM (inactive)	> 100 µM (inactive)	> 100 µM (inactive)	> 100 µM (inactive)	> 100 µM (inactive)	> 100 µM (inactive)	> 100 µM (inactive)	> 100 µM (inactive)	> 100 µM (inactive)	> 100 µM (inactive)
Nc1nc2c(ncn2CC2CCC(CO)C2)c(=O)[nH]1 (configuration not stated)	> 100 µM (inactive)	> 100 µM (inactive)	> 100 µM (inactive)	> 100 µM (inactive)	> 100 µM (inactive)	> 100 µM (inactive)	> 100	> 100 µM (inactive)	–	–	> 100 µM (inactive)	> 100 µM (inactive)	> 100 µM (inactive)	> 100 µM (inactive)	> 100 µM (inactive)	> 100 µM (inactive)	> 100 µM (inactive)	> 100 µM (inactive)	> 100 µM (inactive)	29.2 µM (inactive)
